Test results from the NIST ThermoML archive (doi:10.1016/j.fluid.2005.09.010).
± gives the expanded uncertainty stated by the source.

Conditions: Liquid; for mass density: 298.15 K, 101.33 kPa

Structure (SMILES)	mass density [kg/m3]	vapor or sublimation pressure (375.52 K) [kPa]	vapor or sublimation pressure (353.2 K) [kPa]	vapor or sublimation pressure (353.85 K) [kPa]	vapor or sublimation pressure (322.4 K) [kPa]
C1COCCO1 [1,4-dioxane]	1027.85 ± 0.23	101.3 ± 4.1	–	–	–
c1ccccc1 [benzene]	873.55 ± 0.22	–	101.3 ± 4.1	–	–
C1CCCCC1 [cyclohexane]	773.65 ± 0.32	–	–	101.3 ± 4.1	–
C1CCCC1 [cyclopentane]	739.74 ± 0.79	–	–	–	101.3 ± 4.1
